Data on 3 molecules can be found in patent US20190336494A1, “[…] COMPOUNDS FOR TREATING AGITATION” (Concert Pharmaceuticals, Inc., priority 2015, published 2019).

A short description of data set [1]: Metabolic stability of test compounds using human liver microsomes. In kind it is in vitro ADME. Particulars: for half-life at 1 µM: human, pH 7.4, 1.0 mg/mL HLM, 1 μM test compound, 2 mM NADPH, 37° C., 0-30 minutes, read-out: Ave. t1/2 (n = 2), calculated half-life in human liver microsomes; for Change over non-deuterated compound (t1/2): vs Dimemorfan. Here is the method: Example 4. Determination of Metabolic Stability of Test Compounds using Human Liver Microsomes. Human liver microsomes (20 mg/mL) were obtained from Xenotech, LLC (Lenexa, Kans.). β-nicotinamide adenine dinucleotide phosphate, reduced form (NADPH), magnesium chloride (MgCl2), and dimethyl sulfoxide (DMSO) were purchased from Sigma-Aldrich.
7.5 mM stock solutions of test compounds were prepared in DMSO. The 7.5 mM stock solutions were diluted to 50 μM in acetonitrile (ACN). The 20 mg/mL human liver microsomes were diluted to 1.25 mg/mL (1 mg/mL final) in 0.1 M potassium phosphate buffer, pH 7.4, containing 3 mM MgCl2. The diluted microsomes (375 μL) were added to wells of a 96-well polypropylene plate in triplicate. 10 μL of the 50 μM test compound was added to the microsomes and the mixture was pre-warmed for 10 minutes. Reactions were initiated by addition of 125 μL of pre-warmed NADPH solution. The final reaction volume was 0.5 mL and contained 1.0 mg/mL human liver microsomes, 1 μM test compound, and 2 mM NADPH in 0.1 M potassium phosphate buffer, pH 7.4, and 3 mM MgCl2. The reaction mixtures were incubated at 37° C., and 50 μL aliquots were removed at 0, 5, 10, 20, and 30 minutes and added to shallow 96-well plates which contained 50 μL of ice-cold ACN with internal standard to stop the reactions. The plates were stored at 4° C. for 20 minutes after which 100 μL of water was added to the wells of the plate before centrifugation to pellet precipitated proteins. Supernatants were transferred to another 96-well plate and analyzed for amounts of parent remaining by LC-MS/MS using an Applied Bio-systems API 4000 mass spectrometer.
7-ethoxy coumarin was used as a positive control.
The in vitro t1/2s for test compounds were calculated from the slopes of the linear regression of % parent remaining (In) vs incubation time relationship:
in vitro t 1/2=0.693/k, where k=-[slope of linear regression of % parent remaining(In) vs incubation time]
(§1) Data analysis was performed using Microsoft Excel Software.

Data set [2] in a line: Effect of quinidine on metabolic stability in extensive metabolizer human liver microsomes. The class given is in vitro ADME. The note with it: EM HLM. On the procedure:
Materials: Individual donor with extensive metabolizer human liver microsomes (EM HLM, 20 mg/mL) with CYP2D6 activity of 957±19 pmol/mg protein/min, genotyped for CYP2D6 allelic variant-CYP2D6*1/*2x2, were obtained from Xenotech, LLC (Lenexa, Kans.). β-nicotinamide adenine dinucleotide phosphate, reduced form (NADPH), magnesium chloride (MgCl2), dimethyl sulfoxide (DMSO), acetonitrile (ACN), quinidine, and dextromethorphan (DM) were purchased from Sigma-Aldrich. Dimemorfan and d6-dimemorfan (Compound 100) were synthesized by Adesis, Inc.
Determination of Metabolic Stability: 1.0 mg/mL stock solutions of test compounds dextromethorphan, dimemorfan, and d6-dimemorfan (Compound 100) were prepared in DMSO. The 1.0 mg/mL stock solutions were diluted to 10,000 ng/mL in acetonitrile (ACN). A 10 mM stock solution of quinidine was prepared in acetonitrile, which was then diluted further in acetonitrile to produce 20 μM, 10 μM, 5 μM, 2.5 μM, and 1.25 μM solutions of quinidine. The human liver microsomes were diluted to 1.25 mg/mL in 0.1 M potassium phosphate buffer, pH 7.4, containing 3 mM MgC12. The diluted microsomes were added to wells of a 96-well deep-well polypropylene plate in triplicate. A 5 μL aliquot of each 10,000 ng/mL test compound was added to the microsomes, and the mixture was pre-warmed at 37° C. for 7 minutes, then a 5 μL aliquot of each quinidine solution was added (except in control wells where no quinidine was added). Reactions were initiated by addition of pre-warmed NADPH solution to the mixture. The final reaction volume was 0.5 mL and contained 1.0 mg/mL human liver microsomes, 100 ng/mL of test compound, 0.2, 0.1, 0.05, 0.025, 0.0125, or 0 μM of quinidine, and 2 mM NADPH in 0.1 M potassium phosphate buffer, pH 7.4, and 3 mM MgCl2. The reaction mixtures were incubated at 37° C., and 50 μL aliquots were removed at 0, 15, 30, and 60 minutes and added to shallow-well 96-well plates which contained 50 μL of ice-cold ACN with internal standard to stop the reactions. The plates were stored at 4° C. for 20 minutes after which 100 μL of water was added to the wells of the plate before centrifugation to pellet precipitated proteins. Supernatants were transferred to another 96-well plate and analyzed for amounts of parent remaining by LC-MS/MS using an Applied Bio-systems mass spectrometer. Amount of parent remaining was quantified via standard curve.
The in vitro t1/2's for test compounds were calculated from the slopes of the linear regression of % parent remaining (In) vs. incubation time relationship. • in vitro t1/2=0.693/k • k=-[slope of linear regression of % parent remaining(In) vs incubation time]
The apparent intrinsic clearance was calculated using the following equation:
CLint (mL/min/kg)=(0.693/in vitro t1/2) (Incubation Volume/mg of microsomes)
(45 mg microsomes/gram of liver) (20 gm of liver/kg b.w.)
as §1

Regarding `[2H]C([2H])([2H])c1ccc2c(c1)[C@]13CCCC[C@@H]1[C@H](C2)N(C)CC3` [Compound 102, (+)-3-(Methyl-d3)-17-methyl-(9α, 13α, 14α)-morphinan], in data set [1], the half-life at 1 µM was 28 min and the “Change over non-deuterated compound (t1/2)” value stood at 21%.

Consider `[2H]C([2H])([2H])c1ccc2c(c1)[C@]13CCCC[C@@H]1[C@H](C2)N(C([2H])([2H])[2H])CC3` [Compound 100, (+)-3-(Methyl-d3)-17-(methyl-d3)-(9α, 13α, 14α)-morphinan], for which the half-life at 1 µM in data set [1] is 31.6 min. For the same molecule, the “Change over non-deuterated compound (t1/2)” value in data set [1] is on record as 37%. Moreover, the “% Δ (D6-Dimemorfan/Dimemorfan), deuterium effect on half-life” value in data set [2] (Quinidine 0 μM) is recorded as 35%; in data set [2] (Quinidine 0.0125 μM), 59%; in data set [2] (Quinidine 0.025 μM), 3%; in data set [2] (Quinidine 0.05 μM), 11%; in data set [2] (Quinidine 0.1 μM), 22%; in data set [2] (Quinidine 0.2 μM), −12%. Also, the “Ratio (D6-Dimemorfan/Dimemorfan) of Clint, app” value worked out at 0.74 in data set [2] (Quinidine 0 μM); 0.61 in data set [2] (Quinidine 0.0125 μM); 0.96 in data set [2] (Quinidine 0.025 μM); 0.90 in data set [2] (Quinidine 0.05 μM); 0.82 in data set [2] (Quinidine 0.1 μM); 1.11 in data set [2] (Quinidine 0.2 μM).

On to `Cc1ccc2c(c1)[C@]13CCCC[C@@H]1[C@H](C2)N(C)CC3` [Dimemorfan, (+)-(9α, 13α, 14α)-3,17-dimethylmorphinan, reference compound], for which the half-life at 1 µM in data set [1] is 23.1 min.
